Assay results reported in US6391871B1 (priority 1996, dated 2002).
Read-outs that look alike come from different tables or passages of the source.

Assays:
[1] = tested on: NMDA receptors; assay type: cell-based, chick
Method: Potency rating=minimum concentration required to provide total protection against neurotoxic effects of NMDA (40 μM) in chick embryo retinal tissue tests
These experiments were performed using segments of chick embryo retina. This is a widely used model for studying the production and prevention of excitotoxic phenomena, since it is a simple and inexpensive preparation, and since chick tissue provides a better model of adult mammalian neurons than embryonic or juvenile mammalian tissue. All of the glutamate receptors that mediate excitotoxic phenomena are present in chick retinas, and are sensitive to excitotoxic stimulation. By contrast, in embryonic or juvenile mammalian tissue, various glutamate receptors are not fully matured and are not responsive in the same ways that occur in adult mammalian tissue.
In these tests, NMDA is introduced into the incubation medium in a concentration ([…]) sufficient to produce a fully developed excitotoxic lesion within 30 min, displaying acute degeneration and necrosis of the majority of neurons in the inner layers of the retina. The control retinas are incubated with NMDA alone, and experimental retinas are incubated with NMDA plus a test compound that is being evaluated for NMDA antagonist properties. […] All agents that prevent NMDA from hyperactivating NMDA receptors and thereby inducing an excitotoxic neurodegenerative reaction in the chick embryo retina are considered appropriate candidate drugs for preventing NMDA receptor hyperactivation and NMDA receptor burnout in the presymptomatic stages of Alzheimer's disease.
The concentration of the test compound required to prevent NMDA from inducing neuronal degeneration in the chick retina tissue is considered a measure of its expected potency for preventing NMDA receptor hyperactivation and NMDA receptor burnout in the presymptomatic stages of Alzheimer's disease.

[2] = tested on: cerebrocortical neurons; conditions: Olney et al 1989, Corso et al 1994; cited from earlier work
[3] = human anesthesia; cited from earlier work
[4] = tested on: vacuolated PC/RS neurons; assay type: in vivo, rat; conditions: NBQX 15 mg/kg ip every 30 minutes, 4 injections, with MK-801 0.5 mg/kg; 4 h; ± SEM
From the text: The rats were sacrificed four hours after the treatment began, and brain tissue from the PC/RS region was histologically evaluated, by previously described methods (Olney et al 1991) using double-blinded techniques. The number of vacuolated PC/RS neurons were counted on each side of the brain at a rostrocaudal level immediately posterior to where the corpus callosum ceases decussating across the midline (approximately 5.6 mm caudal to Bregma; see Paxinos & Watson, The Rat Brain in Stereotaxic Coordinates, 2nd ed., 1986).

[5] = tested on: vacuolated PC/RS neurons; assay type: in vivo, rat; conditions: MK-801 ip
Method: To try to avoid that problem, a subsequent set of tests was carried out in which NBQX was microinjected directly into the PC/RS cortex, at one of two doses, either 0.025 or 0.25 nmols.

[6] = tested on: pyramidal neurons in layers III and IV of the posterior cingulate and retrosplenial (PC/RS) cortices; test: In vivo assay of toxic side effects of NMDA antagonists (vacuole formation in PC/RS cortex); conditions: adult female rats, ip, sacrificed four hours after treatment
[7] = tested on: neurons in neocortical and limbic brain regions; test: Histopathology of rat brain after PCP/pilocarpine treatment; assay type: in vivo
Method: Adult female rats were injected subcutaneously with an NMDA antagonist drug, phencyclidine (PCP), at 50 milligrams of drug per kilogram of body weight (mg/kg sc), accompanied by a small dose of a muscarinic agonist, pilocarpine (10 mg/kg sc). At various times (4, 16, 24, 48, 72 and 96 hours) after treatment, the rats were anesthetized and perfused with fixative to allow their brains to be prepared for histological evaluation.
Degenerating neurons in various brain regions were also examined by electron microscopy, to obtain evidence for loss of synaptic complexes, and a computer-assisted cell plotting system was used to plot the location and count the frequency with which degenerating neurons were found in each brain region.
Massive loss of neurons throughout many neocortical and limbic brain regions is a hallmark characteristic of Alzheimer's disease. To establish that the NR/hypo mechanism results not only in cell injury but in cell death, the Applicants systematically examined the brains of rats 4 days following PCP/pilocarpine treatment. Sections prepared at 1 millimeter intervals from one side of the brain were stained, using hematoxylin and eosin; sections prepared at 1 millimeter intervals from the other side of the brain were stained using a silver impregnation stain. […]

[8] = tested on: neurons in rat brain; test: PCP alone (minipump infusion or single high dose), brain damage in rats; assay type: in vivo
From the text: Initially, the Applicants found it difficult to perform a detailed analysis of the full pattern and type of damage that can be induced in the adult rat brain by treatment with an NMDA antagonist because of technical problems that had to be overcome. Therefore, the Applicants tried several approaches. For example, it had been claimed (Ellison 1994) that when PCP is infused continuously in adult rats for five days, by a subcutaneously implanted minipump, it causes injury to nerve cells in several brain regions.
However, they found (Corso et al 1994) that even when a near lethal dose (50-80 mg/kg sc) was administered, a fully developed widespread pattern of damage could only be induced in a very small percentage of treated animals.

CNC1(c2ccccc2Cl)CCCCC1=O (stereo not drawn) [Ketamine]
POTENCY RATING = minimum concentration required to provide total protection against neurotoxic effects of NMDA [1]: 10 µM
pathological changes in cerebral cortex / corticolimbic regions of adult rats [2]: cause pathological changes in the cerebral cortex of adult rats
duration of action [3]: about 15 minutes

NS(=O)(=O)c1cccc2c1c([N+](=O)[O-])cc1nc(O)c(O)nc12 [NBQX]
POTENCY RATING = minimum concentration required to provide total protection against neurotoxic effects of NMDA ([1]; NMDA 40 μM, chick embryo retinal tissue): 100 µM
vacuolated neurons in PC/RS cortex, MK-801 plus NBQX [4]: 52±22.4 vacuolated neurons per microscopic section
reduction of vacuoles, protected (ipsilateral) side, lower dosage ([5]; NBQX 0.025 nmols microinjected into PC/RS cortex): about 20%
reduction of vacuoles, protected (ipsilateral) side, higher dosage ([5]; NBQX 0.25 nmols microinjected into PC/RS cortex): about 80%
neurotoxic (vacuole) reaction in PC/RS cortex, drug by itself [6]: did not cause vacuoles

CC[C@@H]1C(=O)OC[C@@H]1Cc1cncn1C [pilocarpine]
brain damage by pilocarpine by itself ([7]; even at very high dosages): does not and cannot cause the type of damage observed in these tests

c1ccc(C2(N3CCCCC3)CCCCC2)cc1 [Phencyclidine]
POTENCY RATING = minimum concentration required to provide total protection against neurotoxic effects of NMDA [1]: 1 µM
NR/hypo-induced brain damage, PCP combined with pilocarpine ([7]; PCP 50 mg/kg i.p. combined with pilocarpine 10 mg/kg i.p.): reliably and consistently produced severe levels of NR/hypo-induced damage
rats with a full pattern of damage out of 40 rats treated ([8]; PCP 50 mg/kg i.p., single dose): 1
neuronal damage after continuous infusion by subcutaneous minipump ([8]; adult rats, five days, same dose as Ellison 1994): produced no neuronal damage at all
near lethal dose ([8]; rats): 50-80 mg/kg sc
pathological changes in cerebral cortex / corticolimbic regions of adult rats [2]: produce pathological changes in various corticolimbic regions of the adult rat brain
